Measurements taken from article PMC5120204, “Identification of an orally active small-molecule PTHR1 agonist for the treatment of hypoparathyroidism” (Nature Communications, 2016).
Entries after “also recorded” stand apart in the source; their conditions may differ.

Legend:
[1] = Pharmacokinetics in OVX rats; format: in vivo; conditions: female, Crl:CD(SD), rat, plasma
Procedure: (§1) OVX was carried out in 32-week-old female Crl:CD (SD) rats (Charles River Laboratories). Twelve weeks after surgery, lumbar vertebral BMD (L3–L5) was measured in vivo by dual-energy X-ray absorptiometry (DXA) using a DCS-600EX-IIIR bone densitometer (Hitachi Aloka Medical), and the rats were divided into five groups, each with a similar mean value of BMD and body weight. Sample sizes were determined based on previous experiments with hPTHs and a published study with ibandronate and eldecalcitriol in our laboratories[42] (n=7–10). Then, OVX rats were treated once daily intravenously (vehicle or PCO371 at 3 or 10 mg kg^−1) or orally (vehicle or PCO371 at 30 mg kg^−1) or subcutaneously [vehicle or hPTH(1–34) at 0.9 nmol kg^−1] for 12 weeks. Ten to twelve OVX rats were assigned to each dose group. Nine rats were assigned to the sham-operated control group and were treated with vehicle for PCO371. Ten per cent DMSO (Wako Pure Chemical Industries)/10% Kolliphor EL (Sigma-Aldrich) in 10% hydroxypropyl-β-cyclodextrin (HPCD; Nihon Shokuhin Kako)/0.752% glycine (Wako Pure Chemical Industries) buffer was used as vehicle for PCO371, and phosphate-citrate buffer (pH 6.0) was used as vehicle for hPTH(1–34). To label bone-forming surfaces, tetracycline ([…], Nippon Zenyaku Kogyo) was subcutaneously injected on Day 78 and calcein (8 mg kg^−1, Dōjindo Laboratories) was subcutaneously injected on day 83. Under isoflurane anaesthesia, jugular vein blood was collected immediately before and at 1, 2, 6, 10 and 24 h after administration on day 82 to measure plasma concentration of PCO371 or on day 84 to measure serum Ca levels (o-CPC method, Wako Pure Chemical Industries). Urine was collected for 24 h from metabolic cages on days 84–85 to measure urinary collagen type 1 cross-linked C-telopeptide (CTX) by using the RatLaps ELISA System (Immunodiagnostic Systems). Under isoflurane anaesthesia, blood was collected on day 85 from the abdominal aorta to measure serum osteocalcin level by using the Rat Osteocalcin ELISA System (GE Healthcare). The lumbar spine and bilateral femurs were excised after 12 weeks of treatment. The first lumbar vertebra (L1), 3rd to 5th lumbar vertebrae (L3–L5), the right femur, and the right tibia were preserved in 70% ethanol to measure bone histomorphometry and BMD (DCS-600EX; Hitachi Aloka Medical). Measurement of bone histomorphometry was performed by the Ito Bone Histomorphometry Institute (Niigata, Japan). The second lumbar vertebra (L2) was wrapped in saline-soaked gauze and stored at −80 °C until measurement. Ultimate compressive strength (N) of the L2 vertebra was measured by using a mechanical testing machine (TK-252C; Muromachi Kikai).

[2] = system: 12 class B GPCRs (CGRP, calcitonin, CRF1, CRF2α, GLP-1, GLP-2, glucagon, secretin, GHRH, PAC1, VPAC1 and VPAC2); test: Selectivity assay (Cerep), agonist and antagonist cAMP assays; format: cell-based; conditions: at 1 or 10 μmol l^−1; activity defined as >25% of positive control
Procedure: Selectivity assays against class B GPCRs were performed by Cerep (France). Agonistic and antagonistic effects of PCO371 against a panel of 12 class B GPCRs (CGRP, calcitonin, CRF1, CRF2α, GLP-1, GLP-2, glucagon, secretin, GHRH, PAC1, VPAC1 and VPAC2) were examined at PCO371 concentrations of 1 and 10 μmol l^−1. The following cell lines were used; T47D (calcitonin), βTC6 (GLP-1), HT-29 (VPAC1, VPAC2), CHO (CGRP, CRF1, GLP-2, Glucagon, Secretin, GHRH and PAC1, recombinant), and HEK-293 (CRF-2, recombinant). Their antagonistic activity was measured in the presence of the control agonists shown in Supplementary Table 1. In agonist and antagonist experiments, intracellular cAMP levels were determined with the HTRF detection system. EC50 and IC50 values of control agonists or antagonists were calculated by non-linear regression analysis of the concentration-response curves generated with mean replicate values using Hill equation curve-fitting using the formula: equation (2).
Y=response, A=left asymptote of the curve, D=right asymptote of the curve, C=compound concentration, C50=EC50 or IC50, nH=slope factor. Agonistic activity of PCO371 at 1 or 10 μmol l^−1 was calculated as a per cent of the control agonist response; intracellular cAMP accumulation by PCO371 × 100/intracellular cAMP accumulation by the control agonist at the EC50 concentration. […]

[3] = Pharmacokinetics in TPTX rats; format: in vivo, rat; conditions: female, Crl:CD(SD), rat, plasma, po
OVX rats = test: Repeated administration study in OVX rats; format: in vivo, rat
Procedure: as §1

[4] = daily oral 30 mg kg^−1, 12 weeks

Cc1cc(N2C(=O)NC(=O)C2(C)C)cc(C)c1CCS(=O)(=O)N1CCC2(CC1)N=C(c1ccc(OC(F)(F)F)cc1)NC2=O [PCO371, 1-{3,5-dimethyl-4-[2-({4-oxo-2-[4-(trifluoromethoxy)phenyl]-1,3,8-triazaspiro[4.5]dec-1-en-8-yl}sulfonyl)ethyl]phenyl}-5,5-dimethylimidazolidine-2,4-dione]
AUC ([1]; iv, i.v. 3 mg kg-1): 15500 ng·h/mL
half-life ([1]; iv, i.v. 3 mg kg-1): 2.4 ± 0.2 h
AUC ([1]; iv, i.v. 10 mg kg-1): 48700 ng·h/mL
half-life ([1]; iv, i.v. 10 mg kg-1): 2.2 ± 0.2 h
AUC ([1]; po, p.o. 30 mg kg-1): 29500 ng·h/mL
Cmax ([1]; po, p.o. 30 mg kg-1): 95.6 ± 84.4 ng/mL
Tmax ([1]; po, p.o. 30 mg kg-1): 1.4 ± 0.8 h
half-life ([1]; po, p.o. 30 mg kg-1): 2.5 ± 0.3 h
agonistic and antagonistic activities against 12 class B GPCRs [2]: did not show agonistic or antagonistic activity; also recorded: did not exhibit activity
half-life ([3]; p.o. 2 mg kg-1): 6.9 ± 2.3 h
AUC ([3]; p.o. 2 mg kg-1, read-out: AUC): 464 ± 125 ng·h/mL
Cmax ([3]; p.o. 2 mg kg-1, read-out: Cmax): 95.6 ± 84.4 ng/mL
Tmax ([3]; p.o. 2 mg kg-1, read-out: Tmax): 1.4 ± 1 h
half-life ([3]; p.o. 6 mg kg-1): 4.9 ± 0.6 h
AUC ([3]; p.o. 6 mg kg-1, read-out: AUC): 1590 ng·h/mL
Cmax ([3]; p.o. 6 mg kg-1, read-out: Cmax): 216 ± 103 ng/mL
Tmax ([3]; p.o. 6 mg kg-1, read-out: Tmax): 1.3 ± 0.6 h
half-life ([3]; p.o. 18 mg kg-1): 4.7 ± 0.7 h
AUC ([3]; p.o. 18 mg kg-1, read-out: AUC): 9210 ng·h/mL
Cmax ([3]; p.o. 18 mg kg-1, read-out: Cmax): 1630 ng/mL
Tmax ([3]; p.o. 18 mg kg-1, read-out: Tmax): 3.7 ± 3.8 h
BMD or bone strength in the lumbar spine (OVX rats; daily intravenous 3 mg kg^−1, 12 weeks): did not affect
BMD in the proximal femur (OVX rats; [4]): partially increased
BMD in total femur (OVX rats; [4]): not in total femur
BMD or bone strength in the lumbar spine (OVX rats; [4]): did not affect
serum Ca (OVX rats; day 84, all treated rats): within the normal range
serum osteocalcin and urinary CTX/creatinine (OVX rats; intravenous 10 mg kg^−1, 12 weeks): significant increase
BMD and bone strength in the lumbar vertebrae (OVX rats; once-daily intravenous 10 mg kg^−1, 12 weeks, vs vehicle): significant increase
serum osteocalcin and urinary CTX/creatinine (OVX rats; oral 30 mg kg^−1, 12 weeks): significant increase
